From paper PMC5881017, “Mechanisms of BK Channel Activation by Docosahexaenoic Acid in Rat Coronary Arterial Smooth Muscle Cells” (Frontiers in Pharmacology, 2018)

Target: T1, large-conductance calcium-activated potassium (BK) channel (Rattus norvegicus, UniProt Q62976)
T1 construct: gene Kcnma1; native BK channels in freshly isolated rat coronary arterial smooth muscle cells (inside-out patches)
Assay: inside-out single-channel patch clamp (open probability at +[…] mV)
Assay type: cell-based

T1 sequence (Q62976 whole entry): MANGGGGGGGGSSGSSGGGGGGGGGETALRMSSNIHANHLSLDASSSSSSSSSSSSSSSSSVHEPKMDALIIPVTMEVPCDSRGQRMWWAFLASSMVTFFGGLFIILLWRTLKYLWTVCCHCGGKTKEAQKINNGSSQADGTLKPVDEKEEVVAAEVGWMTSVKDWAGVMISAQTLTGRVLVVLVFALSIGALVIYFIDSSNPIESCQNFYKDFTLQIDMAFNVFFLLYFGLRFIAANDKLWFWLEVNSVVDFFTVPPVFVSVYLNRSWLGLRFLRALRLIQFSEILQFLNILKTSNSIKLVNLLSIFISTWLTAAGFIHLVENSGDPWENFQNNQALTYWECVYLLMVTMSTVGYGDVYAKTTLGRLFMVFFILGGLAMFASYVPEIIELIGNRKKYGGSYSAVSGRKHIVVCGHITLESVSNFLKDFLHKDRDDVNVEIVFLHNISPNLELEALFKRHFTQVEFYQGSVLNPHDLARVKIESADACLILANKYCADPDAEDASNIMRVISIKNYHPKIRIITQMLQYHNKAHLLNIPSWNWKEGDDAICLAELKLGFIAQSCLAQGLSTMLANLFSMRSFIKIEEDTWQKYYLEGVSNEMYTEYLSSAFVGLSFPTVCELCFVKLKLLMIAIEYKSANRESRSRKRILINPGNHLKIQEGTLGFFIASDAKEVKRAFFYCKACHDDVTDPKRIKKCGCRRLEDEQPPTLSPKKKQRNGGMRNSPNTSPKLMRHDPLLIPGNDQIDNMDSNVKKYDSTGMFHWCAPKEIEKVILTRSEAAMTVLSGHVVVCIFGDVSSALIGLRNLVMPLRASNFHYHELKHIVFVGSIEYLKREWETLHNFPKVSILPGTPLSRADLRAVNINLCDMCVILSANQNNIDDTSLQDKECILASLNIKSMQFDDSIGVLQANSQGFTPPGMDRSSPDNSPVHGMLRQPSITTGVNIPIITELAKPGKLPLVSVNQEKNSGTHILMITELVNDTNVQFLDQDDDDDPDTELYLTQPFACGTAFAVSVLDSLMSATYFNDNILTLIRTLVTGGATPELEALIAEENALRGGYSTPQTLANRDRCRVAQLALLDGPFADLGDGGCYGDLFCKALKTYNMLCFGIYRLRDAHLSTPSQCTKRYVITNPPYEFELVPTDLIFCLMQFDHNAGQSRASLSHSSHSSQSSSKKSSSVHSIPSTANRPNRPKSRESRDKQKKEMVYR

`CC/C=C\C/C=C\C/C=C\C/C=C\C/C=C\C/C=C\CCC(=O)O` [Docosahexaenoic acid] showed an EC50 of 3.37 ± 0.1 µM.
